Laboratory results published in patent US10759816B2, “Heterocyclic compounds as RSV inhibitors” (Enanta Pharmaceuticals, Inc., priority 2016, dated 2020).

Tested on: genotype A, "Long" strain RSV
Test: RSV-A in vitro cytoprotection assay in HEp-2 cells (ATPlite readout of cell viability)
Assay type: cell-based, Human respiratory syncytial virus
Details: human respiratory syncytial virus, HEp-2, HEp-2 cells, genotype A “Long” strain RSV, cytoprotection; read-out: Human RSV-A (“Long” strain) EC50
From the text: RSV is a single stranded negative sense RNA virus that causes respiratory tract infections which can be dangerous to infants, the elderly, and immunosuppressed individuals. Currently there is no vaccine, and therapeutic options are both costly and of limited effectiveness. These approved treatments are Ribavirin, and Palivizumab/Synagis (a monoclonal antibody). RSV has two genotypes, A and B, which differ primarily in the structure of the virus' surface “G” attachment protein. Our current primary screen focuses on RSV-A and uses an in vitro cytoprotection assay where compounds are added in 2-fold dilutions to cells which are then subjected to fully replicative viral particles. Cell viability is measured several days later along with separate measurements of compound cytotoxicity. This report focuses on the results of our most recent screening of compounds.
HEp-2 cells, (originally derived from tumors grown in irradiated-cortisonised weanling rats that had been injected with epidermoid carcinoma tissue from a person's larynx, but later found to be indistinguishable from HeLa cells by PCR DNA analysis), were used for the culturing of genotype A, “Long” strain RSV. Flasks were inoculated with RSV and viral stocks were collected once cytopathic effect (CPE) was greater than 90%. Viral stocks in 25% sucrose media were snap frozen using liquid nitrogen to increase viral stability. Viral stock titers were quantified by tissue culture infectious dose 50% (TCID50) using 8,000 cells per well and 3-fold viral dilutions across a 96-well plate, cultured for 4 days.
Following extensive parameter testing, the final assay is run as follows: HEp-2 cells are seeded into the inner 60 wells of a 96-well plate at 8,000 cells per well in a volume of 50 μL using Growth Media (DMEM without phenol red, 1% L-Glut, 1% Penn/Strep, 1% nonessential amino acids, 10% FBS). 2-Fold serial dilutions of control and test compounds are added to the wells in duplicate in a total volume of 25 μL. Viral stock is then added to the wells in a volume of 25 μL, bringing the total volume of each well to 100 μL. Each 96-well plate has a control column of 6 wells with cells and virus but no compound (negative control, max CPE), a column with cells but no compound or virus (positive control, minimum CPE), and a column with no cells or virus or compound (background plate/reagent control). The control wells with cells but no virus are given an additional 25 uL of growth media containing an equal quantity of sucrose as those wells receiving the viral stock in order to keep consistent in media and volume conditions. The outer wells of the plate are filled with 125 μL of growth media to act as a thermal and evaporative moat around the test wells. Following a 4-day incubation period, the plates are read using ATPlite (50 uL added per well), which quantifies the amount of ATP (a measure of cell health) present in each well. Assay plates are read using the Envision luminometer. In parallel, cytotoxicity is examined on an additional 96-well plate treated in an identical manner, but substituting the 25 μL of viral stock for 25 μL of growth media. […] EC50 ranges are as follows: A <0.4 μM; B 0.4-0.8 μM; C >0.8 μM.

Compound	EC50 [µM]
COc1ccc(-c2cccc(C(=O)N3CCc4cc(C(=O)NC5CC5)sc4-c4ccccc43)n2)cc1 [Example 62]	0.4 to 0.8
CC(=O)c1ccc(-c2cccc(C(=O)N3CCc4cc(C(=O)NC5CC5)sc4-c4ccccc43)n2)cc1 [Example 63]	0.4 to 0.8
CC(C)(O)c1ccc(-c2cccc(C(=O)N3CCc4cc(C(=O)NC5CC5)sc4-c4ccccc43)n2)cc1 [Example 64]	0.4 to 0.8
COc1ccc(-c2cccc(C(=O)N3CCc4cc(C(=O)NC5CC5)sc4-c4ccccc43)n2)cn1 [Example 65]	< 0.4
O=C(NC1CC1)c1cc2c(s1)-c1ccccc1N(C(=O)c1cccc(-c3ccc(N4CCOCC4)cc3)n1)CC2 [Example 66]	0.4 to 0.8
O=C(NC1CC1)c1cc2c(s1)-c1ccccc1N(C(=O)c1cccc(-c3cccc(N4CCOCC4)c3)n1)CC2 [Example 67]	> 0.8
O=C(NC1CC1)c1cc2c(s1)-c1ccccc1N(C(=O)c1cccc(-c3ccc(C(=O)N4CCOCC4)cc3)n1)CC2 [Example 68]	0.4 to 0.8
O=C(NC1CC1)c1cc2c(s1)-c1ccccc1N(C(=O)c1cccc(-c3cccc(C(=O)N4CCOCC4)c3)n1)CC2 [Example 69]	0.4 to 0.8
COc1ccc(-c2nc(C(=O)N3CCc4cc(C(=O)NC5CC5)sc4-c4ccccc43)ccc2C#N)cn1 [Example 70]	> 0.8
O=C(NC1CC1)c1cc2c(s1)-c1ccccc1N(C(=O)c1ccc(F)c(-c3ccnc(N4CCOCC4)c3)n1)CC2 [Example 71]	0.4 to 0.8
COc1cc(-c2cccc(C(=O)N3CCc4cc(C(=O)NC5CC5)sc4-c4ccccc43)n2)ccn1 [Example 72]	0.4 to 0.8
O=C(NC1CC1)c1cc2c(s1)-c1ccccc1N(C(=O)c1cccc(-c3ccc(C(F)(F)F)nc3)n1)CC2 [Example 73]	0.4 to 0.8
COCCOc1ccc(-c2cccc(C(=O)N3CCc4cc(C(=O)NC5CC5)sc4-c4ccccc43)n2)cn1 [Example 74]	0.4 to 0.8
CC(C)Oc1ccc(-c2cccc(C(=O)N3CCc4cc(C(=O)NC5CC5)sc4-c4ccccc43)n2)cn1 [Example 75]	0.4 to 0.8
O=C(NC1CC1)c1cc2c(s1)-c1ccccc1N(C(=O)c1cccc(-c3cnn(C4CCOCC4)c3)n1)CC2 [Example 76]	0.4 to 0.8
O=C(NC1CC1)c1cc2c(s1)-c1ccccc1N(C(=O)c1cccc(-c3ccc(C4CC4)nc3)n1)CC2 [Example 77]	0.4 to 0.8
N#Cc1ccc(-c2cccc(C(=O)N3CCc4cc(C(=O)NC5CC5)sc4-c4ccccc43)n2)cn1 [Example 78]	0.4 to 0.8
O=C(NC1CC1)c1cc2c(s1)-c1ccccc1N(C(=O)c1cccc(-c3ccc(N4CCCC4)nc3)n1)CC2 [Example 80]	> 0.8
O=C(NC1CC1)c1cc2c(s1)-c1ccccc1N(C(=O)c1cccc(-c3ccc(F)nc3)n1)CC2 [Example 81]	0.4 to 0.8
CN(C)c1ccc(-c2cccc(C(=O)N3CCc4cc(C(=O)NC5CC5)sc4-c4ccccc43)n2)cn1 [Example 82]	> 0.8
CNC(=O)c1ccc(-c2cccc(C(=O)N3CCc4cc(C(=O)NC5CC5)sc4-c4ccccc43)n2)cn1 [Example 83]	0.4 to 0.8
CN(C)c1cc(-c2cccc(C(=O)N3CCc4cc(C(=O)NC5CC5)sc4-c4ccccc43)n2)ccn1 [Example 84]	0.4 to 0.8
O=C(NC1CC1)c1cc2c(s1)-c1ccccc1N(C(=O)c1cccc(-c3ccnc(N4CCOCC4)c3)n1)CC2 [Example 85]	< 0.4
O=C(NC1CC1)c1cc2c(s1)-c1ccccc1N(C(=O)c1cccc(-c3ccnc(N4CCCOCC4)c3)n1)CC2 [Example 86]	< 0.4
O=C(NC1CC1)c1cc2c(s1)-c1ccccc1N(C(=O)c1cccc(-c3cccnc3N3CCOCC3)n1)CC2 [Example 87]	0.4 to 0.8
O=C(NC1CC1)c1cc2c(s1)-c1ccccc1N(C(=O)c1cccc(-c3cccnc3N3CCCOCC3)n1)CC2 [Example 88]	0.4 to 0.8

Compound	EC50 [µM]
O=C(NC1CC1)c1cc2c(s1)-c1ccccc1N(C(=O)c1cccc(-c3ccc(N4CCOCC4)nc3)n1)CC2 [Example 89]	0.4 to 0.8
O=C(NC1CC1)c1cc2c(s1)-c1ccccc1N(C(=O)c1cccc(-c3ccc(N4CCCOCC4)nc3)n1)CC2 [Example 90]	0.4 to 0.8
O=C(NC1CC1)c1cc2c(s1)-c1ccccc1N(C(=O)c1cccc(-c3cc(N4CCOCC4)ncc3F)n1)CC2 [Example 91]	0.4 to 0.8
O=C(NC1CC1)c1cc2c(s1)-c1ccccc1N(C(=O)c1cccc(-c3cnc(N4CCOCC4)c(F)c3)n1)CC2 [Example 92]	0.4 to 0.8
O=C(NC1CC1)c1cc2c(s1)-c1ccccc1N(C(=O)c1ccc(Cl)c(-c3ccnc(N4CCOCC4)c3)n1)CC2 [Example 93]	> 0.8
CNC(=O)c1cc2c(s1)-c1ccccc1N(C(=O)c1cccc(-c3ccc(OC)nc3)n1)CC2 [Example 94]	> 0.8
COc1ccc(-c2cccc(C(=O)N3CCc4cc(C(=O)N(C)C)sc4-c4ccccc43)n2)cn1 [Example 95]	0.4 to 0.8
COc1ccc(-c2cccc(C(=O)N3CCc4cc(C(=O)NCC5CC5)sc4-c4ccccc43)n2)cn1 [Example 96]	0.4 to 0.8
COCCNC(=O)c1cc2c(s1)-c1ccccc1N(C(=O)c1cccc(-c3ccc(OC)nc3)n1)CC2 [Example 97]	0.4 to 0.8
CNC(=O)c1cc2c(s1)-c1ccccc1N(C(=O)c1cccc(N3CCCOCC3)n1)CC2 [Example 98]	< 0.4
CN(C)C(=O)c1cc2c(s1)-c1ccccc1N(C(=O)c1cccc(N3CCCOCC3)n1)CC2 [Example 99]	> 0.8
O=C(NCC1CC1)c1cc2c(s1)-c1ccccc1N(C(=O)c1cccc(N3CCCOCC3)n1)CC2 [Example 100]	< 0.4
COCCNC(=O)c1cc2c(s1)-c1ccccc1N(C(=O)c1cccc(N3CCCOCC3)n1)CC2 [Example 101]	< 0.4
O=C(NC1CC1)c1cc2c(s1)-c1ccccc1N(S(=O)(=O)c1cccc(N3CCCOCC3)n1)CC2 [Example 102]	> 0.8
O=C(NC1CC1)c1cc2c(s1)-c1ccccc1N(S(=O)(=O)c1cccc(-c3ccnc(N4CCOCC4)c3)n1)CC2 [Example 103]	> 0.8
O=C(NC1CC1)c1ccc2c(c1)-c1ccccc1N(C(=O)c1cccc(N3CCCOCC3)n1)CC2 [Example 104]	> 0.8
COc1ccc(-c2cccc(C(=O)N3CCc4ccc(C(=O)NC5CC5)cc4-c4ccccc43)n2)cn1 [Example 105]	> 0.8
O=C(NC1CC1)c1cc2c(o1)-c1ccccc1N(C(=O)c1cccc(N3CCCOCC3)n1)CC2 [Example 106]	0.4 to 0.8
COc1ccc(-c2cccc(C(=O)N3CCc4cc(C(=O)NC5CC5)oc4-c4ccccc43)n2)cn1 [Example 107]	0.4 to 0.8
O=C(NC1CC1)c1nc2c(s1)CCN(C(=O)c1cccc(N3CCCOCC3)n1)c1ccccc1-2 [Example 108]	0.4 to 0.8
COc1ccc(-c2cccc(C(=O)N3CCc4sc(C(=O)NC5CC5)nc4-c4ccccc43)n2)cn1 [Example 109]	> 0.8
COc1ccc(-c2cccc(C(=O)N3CCc4cnc(NC(=O)C5CC5)nc4-c4ccccc43)n2)cn1 [Example 110]	> 0.8
O=C(Nc1ncc2c(n1)-c1ccccc1N(C(=O)c1cccc(N3CCCOCC3)n1)CC2)C1CC1 [Example 111]	> 0.8
O=C(NC1CC1)c1cc2c(s1)-c1ccccc1N(C(=O)c1cccc(-n3ccc4ccccc43)n1)CC2 [Example 112]	> 0.8
COc1ccc2c(ccn2-c2cccc(C(=O)N3CCc4cc(C(=O)NC5CC5)sc4-c4ccccc43)n2)c1 [Example 113]	> 0.8
